Description: Solubility indicates the result of measurement based on the final volume of water added to a sample when it is visually confirmed that the sample is completely dissolved by adding water to the sample. The solubility of the actual sample may be higher than the measured solubility. Solubility was measured based on the final volume of water added to a sample when it was visually confirmed that the sample was completely dissolved by adding water to the sample.

## CC(C)C(=O)N([C@H]1C[C@@H](C(=O)N2CCOCC2)N(C(=O)[C@@H]2CN(C(C)(C)C)C[C@H]2c2ccc(Cl)cc2)C1)[C@H]1CC[C@@H](C)CC1.O=S(=O)(O)O [Example 2, N-((3S,5S)-1-((3S,4R)-1-(tert-butyl)-4-(4-chlorophenyl)pyrrolidine-3-carbonyl)-5-(morpholine-4-carbonyl)pyrrolidin-3-yl)-N-((1 s,4R)-4-methylcyclohexyl)isobutyramide sulfate]
  solubility: more than 56 mg/mL

— patent US20240239782A1, “SULFATE CRYSTALS OF MELANOCORTIN RECEPTOR AGONIST COMPOUND AND METHOD OF PRODUCING SAME” (LG CHEM, LTD., priority 2021, published 2024)
